These are literature values, as cited in publication PMC3986712, “Diclofenac Salts. V. Examples of Polymorphism among Diclofenac Salts with Alkyl-hydroxy Amines Studied by DSC and HSM” (Pharmaceutics, 2010).

For this data set the following is noted: free base (counterion), no reference given.

One may read the pKa as the negative logarithm of the acid dissociation constant. `NC(CO)(CO)CO` [TRIS base, Tris-methylol aminomethane]: the pKa is given as 7.76.
